Measured values: patent US12030884B2, “Pyrazoloquinoline KRAS inhibitors” (INCYTE CORPORATION, priority 2021, dated 2024)

Assays:
KRAS G12C = KRAS G12C (Homo sapiens, UniProt P01116, G12C); test: GDP-GTP exchange assay (KRAS_G12C exchange assay); assay type: biochemical; conditions: bodipy-loaded KRAS G12C, SOS1, GppNHp; 2 hours pre-incubation with inhibitor; read-out: G12C_exchange
Method: The inhibitor potency of the exemplified compounds was determined in a fluorescence based guanine nucleotide exchange assay, which measures the exchange of bodipy-GDP (fluorescently labeled GDP) for GppNHp (Non-hydrolyzable GTP analog) to generate the active state of KRAS in the presence of SOS1 (guanine nucleotide exchange factor). Inhibitors were serially diluted in DMSO and a volume of 0.1 μL was transferred to the wells of a black low volume 384-well plate. 5 μL/well volume of bodipy-loaded KRAS G12C diluted to 5 nM in assay buffer (25 mM Hepes pH 7.5, 50 mM NaCl, 10 mM MgCl2 and 0.01% Brij-35) was added to the plate and pre-incubated with inhibitor for 2 hours at ambient temperature. Appropriate controls (enzyme with no inhibitor or with a G12C inhibitor (AMG-510)) were included on the plate. The exchange was initiated by the addition of a 5 μL/well volume containing 1 mM GppNHp and 300 nM SOS1 in assay buffer. The 10 μL/well reaction concentration of the bodipy-loaded KRAS G12C, GppNHp, and SOS1 were 2.5 nM, 500 uM, and 150 nM, respectively. The reaction plates were incubated at ambient temperature for 2 hours, a time estimated for complete GDP-GTP exchange in the absence of inhibitor. For the KRAS G12D and G12V mutants, similar guanine nucleotide exchange assays were used with 2.5 nM as final concentration for the bodipy loaded KRAS proteins and with 4 hours and 3 hours incubation after adding GppNHp-SOS1 mixture for G12D and G12V respectively. A cyclic peptide described to selectively bind G12D mutant (Sakamoto et al., BBRC 484.3 (2017), 605-611) or internal compounds with confirmed binding were used as positive controls in the assay plates. Fluorescence intensities were measured on a PheraStar plate reader instrument (BMG Labtech) with excitation at 485 nm and emission at 520 nm.
Either GraphPad prism or Genedata Screener SmartFit was used to analyze the data. The IC50 values were derived by fitting the data to a four parameter logistic equation producing a sigmoidal dose-response curve with a variable Hill coefficient.

[1] = tested on: pERK in KRAS G12C cells (MIA PaCa-2, NCI-H358); test: Cellular pERK HTRF assay (KRAS_G12C pERK assay); assay type: cell-based; conditions: 4 hours incubation, read-out: G12C_pERK
Method: MIA PaCa-2 (KRAS G12C; ATCC® CRL-1420), NCI-H358 (KRAS G12C; ATCC® CRL-5807), A427 (KRAS G12D; ATCC® HTB53), HPAFII (KRAS G12D; ATCC® CRL-1997), YAPC (KRAS G12V; DSMZ ACC382), SW480 (KRAS G12V; ATCC® CRL-228) and NCI-H838 (KRAS WT; ATCC® CRL-5844) cells are purchased from ATCC and maintained in RPMI 1640 media supplemented with 10% FBS (Gibco/Life Technologies). The cells are plated at 5000 cells per well (8 uL) into Greiner 384-well low volume, flat-bottom, and tissue culture treated white plates and incubated overnight at […], 5% CO2. The next morning, test compound stock solutions are diluted in media at 3× the final concentration and 4 uL are added to the cells, with a final concentration of 0.1% of DMSO. The cells are incubated with the test compounds for 4 hours (G12C and G12V) or 2 hrs (G12D) at 37° C., 5% CO2. Four uL of 4×lysis buffer with blocking reagent (Cisbio) are added to each well and plates are rotated gently (300 rpm) for 30 minutes at room temperature. Four uL per well of Cisbio anti Phospho-ERK 1/2 d2 is mixed with anti Phospho-ERK 1/2 Cryptate (1:1), and added to each well, incubated overnight in the dark at room temperature. Plates are read on the Pherastar plate reader at 665 nm and 620 nm wavelengths. Data are analyzed in Genedata Screener using SmartFit for IC50 values.

[2] = tested on: pERK1/2 in MIA PaCa-2 cells (KRAS G12C); test: Whole blood pERK1/2 HTRF assay (KRAS_G12C WB pERK assay); assay type: cell-based; conditions: Homo sapiens, compound in whole blood, 4 hours, read-out: G12C_WB_pERK
Method: MIA PaCa-2 cells (KRAS G12C; ATCC® CRL-1420), HPAF-II (KRAS G12D; ATCC® CRL-1997) and YAPC (KRAS G12V; DSMZ ACC382) are maintained in RPMI 1640 with 10% FBS (Gibco/Life Technologies). For MIA PaCa-2 assay, cells are seeded into 96 well tissue culture plates (Corning #3596) at 25000 cells per well in 100 uL media and cultured for 2 days at 37° C., 5% CO2 before the assay. For HPAF-II and YAPC assay, cells are seeded in 96 well tissue culture plates at 50000 cells per well in 100 uL media and cultured for 1 day before the assay. Whole Blood are added to the 1 uL dots of compounds (prepared in DMSO) in 96 well plates and mixed gently by pipetting up and down so that the concentration of the compound in blood is 1× of desired concentration, in 0.5% DMSO. The media is aspirated from the cells and 50 uL per well of whole blood with test compound is added and incubated for 4 hours for MIA PaCa and YAPC assay; or 2 hours for HPAF-II assay, respectively at 37° C., 5% CO2. After dumping the blood, the plates are gently washed twice by adding PBS to the side of the wells and dumping the PBS from the plate onto a paper towel, tapping the plate to drain well. Fifty ul/well of 1×lysis buffer #1 (Cisbio) with blocking reagent (Cisbio) and Benzonase nuclease (Sigma Cat #E1014-5KU, 1: 10000 final concentration) is then added and incubated at room temperature for 30 minutes with shaking (250 rpm). Following lysis, 16 uL of lysate is transferred into 384-well Greiner small volume white plate using an Assist Plus (Integra Biosciences, NH). Four uL of 1:1 mixture of anti Phospho-ERK 1/2 d2 and anti Phospho-ERK 1/2 Cryptate (Cisbio) is added to the wells using the Assist Plus and incubated at room temperature overnight in the dark. Plates are read on the Pherastar plate reader at 665 nm and 620 nm wavelengths. Data are analyzed in Genedata Screener using SmartFit for IC50 values.

[3] = Human whole blood stability; assay type: in vitro ADME; conditions: percent remaining, 1 μM, 37° C.
Method: The whole blood stability of the exemplified compounds was determined by LC-MS/MS. The 96-Well Flexi-Tier™ Block (Analytical Sales & Services, Inc, Flanders, NJ) was used for the incubation plate containing 1.0 mL glass vials with 0.5 mL of blood per vial (pooled gender, human whole blood sourced from BIOIVT, Hicksville, NY or similar). Blood was pre-warmed in water bath to 37° C. for 30 minutes. 96-deep well analysis plate was prepared with the addition of 100 μL ultrapure water/well. 50 μL chilled ultrapure water/well was added to 96-deep well sample collection plate and covered with a sealing mat. 1 μL of 0.5 mM compound working solution (DMSO:water) was added to the blood in incubation plate to reach final concentrations of 1 μM, mixed by pipetting thoroughly and 50 μL was transferred 50 into the T=0 wells of the sample collection plate. Blood was allowed to sit in the water for 2 minutes and then 400 μL stop solution/well was added (acetonitrile containing an internal standard). The incubation plate was placed in the Incu-Shaker CO2 Mini incubator (Benchmark Scientific, Sayreville, NJ) at 37° C. with shaking at 150 rpm. At 1, 2 and 4-hr, the blood samples were mixed thoroughly by pipetting and 50 μL is transferred into the corresponding wells of the sample collection plate. Blood was allowed to sit in the water for 2 minutes and then 400 μL of stop solution/well was added. The collection plate was sealed and vortexed at 1700 rpm for 3 minutes (VX-2500 Multi-Tube Vortexer, VWR International, Radnor, PA), and samples were then centrifuged in the collection plate at 3500 rpm for 10 minutes (Allegra X-14R Centrifuge Beckman Coulter, Indianapolis, IN). 100 μL of supernatant/well was transferred from the sample collection plate into the corresponding wells of the analysis plate. The final plate was vortexed at 1700 rpm for 1 minute and analyze samples by LC-MS/MS. The peak area ratio of the 1, 2, and 4 hr samples relative to T=0 was used to determine the percent remaining. The natural log of the percent remaining versus time was used determine a slope to calculate the compounds half-life in blood (t1/2=0.693/slope).

Chain of KRAS G12C (P01116 1-188 isoform P01116-2 G12C): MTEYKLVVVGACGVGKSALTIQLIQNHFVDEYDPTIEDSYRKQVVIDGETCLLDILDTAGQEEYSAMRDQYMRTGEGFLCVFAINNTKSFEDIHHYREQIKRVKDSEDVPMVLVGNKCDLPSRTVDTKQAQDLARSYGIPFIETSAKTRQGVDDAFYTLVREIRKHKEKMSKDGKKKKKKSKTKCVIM

Row | IC50 (KRAS G12C) | IC50 [1] | IC50 [2] | Human whole blood stability at 4 hr [3] | SMILES
1 | ≤ 0.1 µM |  |  |  | CC#CC(=O)N1CC[C@H](n2ncc3c(O[C@@H](C)[C@@H]4CCCN4C)nc4c(F)c(-c5nccc6cccc(C#N)c56)c(Cl)cc4c32)C[C@H]1CC#N (single isomer, unassigned) [Example 1b]
2 | 0.1 to 1 µM |  |  |  | C=C(F)C(=O)N1CC[C@H](n2ncc3c(O[C@@H](C)[C@@H]4CCCN4C)nc4c(F)c(-c5cccc6cccc(C#N)c56)c(Cl)cc4c32)C[C@H]1CC#N (single isomer, unassigned) [Example 5a]
3 | ≤ 0.1 µM | ≤ 0.1 µM | ≤ 0.1 µM |  | C=C(F)C(=O)N1CC[C@H](n2ncc3c(O[C@@H](C)[C@@H]4CCCN4C)nc4c(F)c(-c5cccc6cccc(C#N)c56)c(Cl)cc4c32)C[C@H]1CC#N (single isomer, unassigned) [Example 5b]
4 | ≤ 0.1 µM | ≤ 0.1 µM | ≤ 0.1 µM | †† (WBS >70% but ≤90%) | CC#CC(=O)N1CC[C@H](n2ncc3c(O[C@@H](C)[C@@H]4CCCN4C)nc4c(F)c(-c5cccc6cccc(C#N)c56)c(C)cc4c32)C[C@H]1CC#N (single isomer, unassigned) [Example 7]
5 | ≤ 0.1 µM | ≤ 0.1 µM | ≤ 0.1 µM | ††† (WBS >90%) | COC/C=C/C(=O)N1CC[C@H](n2ncc3c(O[C@@H](C)[C@@H]4CCCN4C)nc4c(F)c(-c5nccc6cccc(C#N)c56)c(Cl)cc4c32)C[C@H]1CC#N [Example 2a, 1-(8-chloro-1-((2S,4S)-2-(cyanomethyl)-1-((E)-4-methoxybut-2-enoyl)piperidin-4-yl)-6-fluoro-4-((S)-1-((S)-1-methylpyrrolidin-2-yl)ethoxy)-1H-pyrazolo[4,3-c]quinolin-7-yl)isoquinoline-8-carbonitrile]
6 | ≤ 0.1 µM |  |  |  | COC/C=C/C(=O)N1CC[C@H](n2ncc3c(O[C@@H](C)[C@@H]4CCCN4C)nc4c(F)c(-c5cccc6cccc(C#N)c56)c(Cl)cc4c32)C[C@H]1CC#N [Example 6a, 8-(8-chloro-1-((2S,4S)-2-(cyanomethyl)-1-((E)-4-methoxybut-2-enoyl)piperidin-4-yl)-6-fluoro-4-((S)-1-((S)-1-methylpyrrolidin-2-yl)ethoxy)-1H-pyrazolo[4,3-c]quinolin-7-yl)-1-naphthonitrile]
7 |  | ≤ 0.1 µM | ≤ 0.1 µM | ††† (WBS >90%) | COC/C=C/C(=O)N1CC[C@H](n2ncc3c(O[C@@H](C)[C@@H]4CCCN4C)nc4c(F)c(-c5cccc6cccc(C#N)c56)c(Cl)cc4c32)C[C@H]1CC#N [Example 6b, 8-(8-chloro-1-((2S,4S)-2-(cyanomethyl)-1-((E)-4-methoxybut-2-enoyl)piperidin-4-yl)-6-fluoro-4-((S)-1-((S)-1-methylpyrrolidin-2-yl)ethoxy)-1H-pyrazolo[4,3-c]quinolin-7-yl)-1-naphthonitrile]

The remaining lines, values behind:

Row | SMILES | IC50 (KRAS G12C) | IC50 [1] | IC50 [2] | Human whole blood stability at 4 hr [3]
8 | CC#CC(=O)N1CC[C@H](n2ncc3c(O[C@@H](C)[C@@H]4CCCN4C)nc4c(F)c(-c5nccc6cccc(C#N)c56)c(Cl)cc4c32)C[C@H]1CC#N (single isomer, unassigned) [Example 1a] | ≤ 0.1 µM | ≤ 0.1 µM | ≤ 0.1 µM | ††† (WBS >90%)
9 | C=C(F)C(=O)N1CC[C@H](n2ncc3c(O[C@@H](C)[C@@H]4CCCN4C)nc4c(F)c(-c5nccc6cccc(C#N)c56)c(Cl)cc4c32)C[C@H]1CC#N (single isomer, unassigned) [Example 3a] | ≤ 0.1 µM | ≤ 0.1 µM | ≤ 0.1 µM | ††† (WBS >90%)
10 | C=C(F)C(=O)N1CC[C@H](n2ncc3c(O[C@@H](C)[C@@H]4CCCN4C)nc4c(F)c(-c5nccc6cccc(C#N)c56)c(Cl)cc4c32)C[C@H]1CC#N (single isomer, unassigned) [Example 3b] | 0.1 to 1 µM |  |  | 
11 | C=C(F)C(=O)N1CC[C@H](n2ncc3c(N4CC(N(C)CC)C4)nc4c(F)c(-c5c(C)c(C)cc6[nH]ncc56)c(Cl)cc4c32)C[C@H]1CC#N (single isomer, unassigned) [Example 4a] | ≤ 0.1 µM | ≤ 0.1 µM | ≤ 0.1 µM | †† (WBS >70% but ≤90%)
12 | C=C(F)C(=O)N1CC[C@H](n2ncc3c(N4CC(N(C)CC)C4)nc4c(F)c(-c5c(C)c(C)cc6[nH]ncc56)c(Cl)cc4c32)C[C@H]1CC#N (single isomer, unassigned) [Example 4b] | 1 to 5 µM |  |  | 
